Source: the supplement of paper PMC4862054

Experiments:
Conditions in all cases: incubation time: 72 h
[1] = tested on: BT-474; test: normalised response (% of control), CellTiter-Glo; higher = more viable cells (100 = DMSO, 0 = benzethonium chloride kill control)
Procedure, shortened: (§1)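 Breast cancer cell lines were exposed for 72 h in 384-well plates to compound at 5 concentrations, 10-fold apart, covering a 10,000-fold range fixed for each compound. Plates were read for CellTox Green fluorescence and CellTiter-Glo luminescence and normalised to 0.1 % DMSO (100) and a positive kill control (0). Each value is the normalised signal at one concentration of the series.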

[2] = tested on: BT-549; test: as above
Procedure, shortened: as §1

[3] = tested on: CAL-120; test: as above
Procedure, shortened: as §1

[4] = tested on: CAL-148; test: as above
Procedure, shortened: as §1

[5] = tested on: CAL-51; test: as above
Procedure, shortened: as §1

[6] = tested on: CAL-85-1; test: as above
Procedure, shortened: as §1

[7] = tested on: DU-4475; test: as above
Procedure, shortened: as §1

[8] = tested on: HCC1143; test: as above
Procedure, shortened: as §1

[9] = tested on: HCC1599; test: as above
Procedure, shortened: as §1

[10] = tested on: HCC1937; test: as above
Procedure, shortened: as §1

[11] = tested on: HDQ-P1; test: as above
Procedure, shortened: as §1

[12] = tested on: Hs578T; test: as above
Procedure, shortened: as §1

[13] = tested on: MCF-10A; test: as above
Procedure, shortened: as §1

[14] = tested on: MDA-MB-231; test: as above
Procedure, shortened: as §1

[15] = tested on: MDA-MB-436; test: as above
Procedure, shortened: as §1

[16] = tested on: MDA-MB-453; test: as above
Procedure, shortened: as §1

[17] = tested on: MDA-MB-468; test: as above
Procedure, shortened: as §1

[18] = tested on: MFM-223; test: as above
Procedure, shortened: as §1

[19] = tested on: SK-BR-3; test: as above
Procedure, shortened: as §1

[20] = tested on: BT-474; test: normalised viability (% of control), CellTiter-Blue; higher = more viable cells (100 = DMSO, 0 = benzethonium chloride kill control)
Procedure, shortened: (§2)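 Breast cancer cell lines in 20 µl suspension were seeded onto 384-well plates pre-loaded with compound dissolved in 5 µl medium, then incubated 72 h. CellTiter-Blue reagent (2.5 µl) was added for 2 h at 37 °C and fluorescence read at 560/590 nm. Each plate was normalised to vehicle (100) and a positive kill control (0), with Z'-factor quality control. The value is normalised viability at one listed concentration of the series.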

[21] = tested on: BT-549; test: as above
Procedure, shortened: as §2

[22] = tested on: CAL-120; test: as above
Procedure, shortened: as §2

[23] = tested on: CAL-148; test: as above
Procedure, shortened: as §2

[24] = tested on: CAL-51; test: as above
Procedure, shortened: as §2

[25] = tested on: CAL-85-1; test: as above
Procedure, shortened: as §2

[26] = tested on: DU-4475; test: as above
Procedure, shortened: as §2

[27] = tested on: HCC1143; test: as above
Procedure, shortened: as §2

[28] = tested on: HCC1599; test: as above
Procedure, shortened: as §2

[29] = tested on: HCC1937; test: as above
Procedure, shortened: as §2

[30] = tested on: HDQ-P1; test: as above
Procedure, shortened: as §2

[31] = tested on: Hs578T; test: as above
Procedure, shortened: as §2

[32] = tested on: MDA-MB-231; test: as above
Procedure, shortened: as §2

[33] = tested on: MDA-MB-436; test: as above
Procedure, shortened: as §2

[34] = tested on: MDA-MB-453; test: as above
Procedure, shortened: as §2

[35] = tested on: MDA-MB-468; test: as above
Procedure, shortened: as §2

[36] = tested on: MFM-223; test: as above
Procedure, shortened: as §2

[37] = tested on: SK-BR-3; test: as above
Procedure, shortened: as §2

SMILES | normalised response [1] [%] | normalised response [2] [%] | normalised response [3] [%] | normalised response [4] [%] | normalised response [5] [%] | normalised response [6] [%] | normalised response [7] [%] | normalised response [8] [%] | normalised response [9] [%] | normalised response [10] [%] | normalised response [11] [%] | normalised response [12] [%] | normalised response [13] [%] | normalised response [14] [%] | normalised response [15] [%] | normalised response [16] [%] | normalised response [17] [%] | normalised response [18] [%] | normalised response [19] [%] | normalised viability [20] [%] | normalised viability [21] [%] | normalised viability [22] [%] | normalised viability [23] [%] | normalised viability [24] [%] | normalised viability [25] [%] | normalised viability [26] [%] | normalised viability [27] [%] | normalised viability [28] [%] | normalised viability [29] [%] | normalised viability [30] [%] | normalised viability [31] [%] | normalised viability [32] [%] | normalised viability [33] [%] | normalised viability [34] [%] | normalised viability [35] [%] | normalised viability [36] [%] | normalised viability [37] [%]
N#Cc1ccc(COC[C@H]2O[C@@H](n3c(NCc4ccc(Cl)c(Cl)c4)nc4c(N)ncnc43)[C@H](O)[C@@H]2O)cc1 (1 nM) | 109 | 99.8 | 108 | 110 | 78.2 | 104 | 99.1 | 108 | 110 | 103 | 108 | 101 | 112 | 107 | 104 | 112 | 107 | 107 | 109 | 116 | 105 | 101 | 111 | 111 | 98.4 | 111 | 99.9 | 109 | 84.1 | 118 | 92.8 | 102 | 110 | 110 | 95.5 | 92.5 | 91.4
CO[C@H]1C[C@@H]2CC[C@@H](C)[C@@](O)(O2)C(=O)C(=O)N2CCCC[C@H]2C(=O)O[C@H]([C@H](C)C[C@@H]2CC[C@@H](OP(C)(C)=O)[C@H](OC)C2)CC(=O)[C@H](C)/C=C(\C)[C@@H](O)[C@@H](OC)C(=O)[C@H](C)C[C@H](C)/C=C/C=C/C=C/1C [Ridaforolimus] (0.1 nM) | 99.6 | 91.2 | 101 | 104 | 114 | 101 | 105 | 102 | 96.5 | 93.1 | 94.1 | 97.7 | 105 | 99.3 | 98.1 | 96.3 | 96.5 | 101 | 105 | 94 | 91 | 84.8 | 99.4 | 97.2 | 82.1 | 100 | 88 | 104 | 108 | 78.4 | 97.7 | 112 | 105 | 93 | 96.8 | 82.2 | 81.8
COCC1(CO)C(=O)C2CCN1CC2 (stereo not drawn) [Prima-1 Met] (1 nM) | 102 | 104 | 97.1 | 107 | 81.5 | 101 | 102 | 98.8 | 101 | 95.5 | 108 | 99.1 | 108 | 101 | 102 | 116 | 107 | 104 | 109 | 96.1 | 106 | 86.9 | 93.2 | 90.5 | 90.5 | 120 | 91.1 | 123 | 74.9 | 83 | 114 | 89.7 | 104 | 93.9 | 108 | 98.7 | 104
COCC[n+]1c2c(n(Cc3cnccn3)c1C)C(=O)c1ccccc1C2=O [YM155] (1 nM) | 86.8 | 96 | 94.7 | 93.3 | 119 | 89.6 | 94.7 | 88.8 | 84.7 | 89.8 | 109 | 92.5 | 82.1 | 99.6 | 81.3 | 86.2 | 93.6 | 86.8 | 80.6 | 103 | 102 | 99.2 | 105 | 92.4 | 107 | 108 | 114 | 136 | 90.1 | 81.3 | 107 | 83 | 101 | 93.3 | 85.3 | 98.8 | 94.5
